According to patent US12054486B2, “Pyridine derivatives and their use as sodium channel activators” (Xenon Pharmaceuticals Inc., priority 2021, dated 2024):
Structures can show the parent of a compound that is named as a salt.

Biological target: sodium channel isoforms of interest stably expressed in Human Embryonic Kidney Cells (voltage-gated sodium channel, particularly NaV1.1) (Homo sapiens, UniProt P35498)
Assay: automated planar patch clamp assay of sodium channel gating (area under the sodium current trace)
Type: cell-based
Settings: HEK cells, voltage step from −120 mV to 0 mV, increasing concentrations
Excerpt: A typical assay described in Crestey, F. et al., ACS Chem Neurosci (2015), Vol. 6, pp. 1302-1308, AA43279 (Frederiksen, K. et al., Eur J Neurosci (2017), Vol. 46, pp. 1887-1896) and Lu AE98134 (von Schoubyea, N. L. et al., Neurosci Lett (2018), Vol. 662, pp. 29-35) employs the use of automated planar patch clamp techniques to study the effects of the chemical agent on the gating of sodium channels. The sodium channel isoforms of interest are stably expressed in Human Embryonic Kidney Cells and the currents that flow through those channels in response to a depolarizing voltage clamp step from −120 mV to 0 mV are measured in the presence of increasing concentrations of the chemical agents. The area under the sodium current trace which correlates to the magnitude of sodium flux through the cell membrane is used to quantify the effects on gating of the channels. Other parameters that are measured in the assay include the peak current, time constant of open state inactivation and the voltage dependence of steady state inactivation properties. The concentration responses are used to determine potency of each chemical agents effects on modulating the sodium channel isoform gating. Such techniques are known to those skilled in the art, and may be developed, using current technologies, into low or medium throughput assays for evaluating compounds for their ability to modulate sodium channel behaviour.
As disclosed above, typical assays for testing compounds of the disclosure are known, for example as disclosed in Crestey, F. et al., ACS Chem Neurosci (2015), Vol. 6, pp. 1302-1308, AA43279 (Frederiksen, K. et al., Eur J Neurosci (2017), Vol. 46, pp. 1887-1896) and Lu AE98134 (von Schoubyea, N. L. et al., Neurosci Lett (2018), Vol. 662, pp. 29-35) which employs the use of automated planar patch clamp techniques to study the effects of the chemical agent on the gating of sodium channels. The sodium channel isoforms of interest are stably expressed in Human Embryonic Kidney Cells and the currents that flow through those channels in response to a depolarizing voltage clamp step from −120 mV to 0 mV are measured in the presence of increasing concentrations of the chemical agents. The area under the sodium current trace which correlates to the magnitude of sodium flux through the cell membrane is used to quantify the effects on gating of the channels. Other parameters that are measured in the assay include the peak current, time constant of open state inactivation and the voltage dependence of steady state inactivation properties. The concentration responses are used to determine potency of each chemical agents effects on modulating the sodium channel isoform gating.

| SMILES | EC50 [µM] | Empirical Emax |
| --- | --- | --- |
| CC(C)c1ccc(-c2nnc(-c3c(-c4ccccc4)ccnc3N3CC[C@H](F)C3)o2)cc1 [Example 30, (S)-2-(2-(3-fluoropyrrolidin-1-yl)-4-phenylpyridin-3-yl)-5-(4-isopropylphenyl)-1,3,4-oxadiazole] | 1 to 10 | + (+ indicates a value less than 2.0 μM) |
| CC(C)(C)c1ccc2nc(-c3c(-c4ccccc4)ncnc3N3CCCC3)[nH]c2c1 [Example 31, 6-(tert-butyl)-2-(4-phenyl-6-(pyrrolidin-1-yl)pyrimidin-5-yl)-1H-benzo[d]imidazole] | 1 to 10 | +++ (+++ indicates a value from 5.0 up to 7.5 μM) |
| F[C@H]1CCN(c2nccc(-c3ccccc3)c2-c2nnn[nH]2)C1 [Example 32, (S)-2-(3-fluoropyrrolidin-1-yl)-4-phenyl-3-(1H-tetrazol-5-yl)pyridine] | < 1 | + (+ indicates a value less than 2.0 μM) |
| Cc1nc(-c2c(-c3ccccc3)ccnc2N2CC[C@H](F)C2)[nH]c1C(F)(F)F [Example 33, (S)-2-(3-fluoropyrrolidin-1-yl)-3-(4-methyl-5-(trifluoromethyl)-1H-imidazol-2-yl)-4-phenylpyridine] | 10 to 50 | ++ (++ indicates a value from 2.0 up to 5.0 μM) |
| CC(C)(C)OC(=O)N1CCc2nc(-c3c(-c4ccccc4)ccnc3N3CC[C@H](F)C3)[nH]c2C1 [Example 34, Tert-Butyl (S)-2-(2-(3-fluoropyrrolidin-1-yl)-4-phenylpyridin-3-yl)-3,4,6,7-tetrahydro-5H-imidazo[4,5-c]pyridine-5-carboxylate] | 1 to 10 | +++ (+++ indicates a value from 5.0 up to 7.5 μM) |
| F[C@H]1CCN(c2nccc(-c3ccccc3)c2-c2nc3c([nH]2)CNCC3)C1 [Example 35, (S)-2-(2-(3-fluoropyrrolidin-1-yl)-4-phenylpyridin-3-yl)-4,5,6,7-tetrahydro-3H-imidazo[4,5-c]pyridine 2,2,2-trifluoroacetic Acid Salt (Free Acid)] | ≥ 50 | + (+ indicates a value less than 2.0 μM) |
| CN1CCc2nc(-c3c(-c4ccccc4)ccnc3N3CC[C@H](F)C3)[nH]c2C1 [Example 36, (S)-2-(2-(3-fluoropyrrolidin-1-yl)-4-phenylpyridin-3-yl)-5-methyl-4,5,6,7-tetrahydro-3H-imidazo[4,5-c]pyridine] | 10 to 50 | + (+ indicates a value less than 2.0 μM) |
| CC(=O)N1CCc2nc(-c3c(-c4ccccc4)ccnc3N3CC[C@H](F)C3)[nH]c2C1 [Example 37, (S)-1-(2-(2-(3-fluoropyrrolidin-1-yl)-4-phenylpyridin-3-yl)-3,4,6,7-tetrahydro-5H-imidazo[4,5-c]pyridin-5-yl)ethan-1-one] | 10 to 50 |  |
| CC(C)N1CCc2nc(-c3c(-c4ccccc4)ccnc3N3CC[C@H](F)C3)[nH]c2C1 [Example 38, (S)-2-(2-(3-fluoropyrrolidin-1-yl)-4-phenylpyridin-3-yl)-5-isopropyl-4,5,6,7-tetrahydro-3H-imidazo[4,5-c]pyridine] | ≥ 50 | + (+ indicates a value less than 2.0 μM) |
| F[C@H]1CCN(c2nccc(-c3ccccc3)c2-c2nc3c([nH]2)CN(C2COC2)CC3)C1 [Example 39, (S)-2-(2-(3-fluoropyrrolidin-1-yl)-4-phenylpyridin-3-yl)-5-(oxetan-3-yl)-4,5,6,7-tetrahydro-3H-imidazo[4,5-c]pyridine] | 10 to 50 | ++ (++ indicates a value from 2.0 up to 5.0 μM) |
| CCOC(=O)N1CCc2nc(-c3c(-c4ccccc4)ccnc3N3CC[C@H](F)C3)n(C(=O)OCC)c2C1 [Example 40, diethyl (S)-2-(2-(3-fluoropyrrolidin-1-yl)-4-phenylpyridin-3-yl)-6,7-dihydro-3H-imidazo[4,5-c]pyridine-3,5(4H)-dicarboxylate] | 1 to 10 | +++ (+++ indicates a value from 5.0 up to 7.5 μM) |
| CC(C)C(=O)N1CCc2nc(-c3c(-c4ccccc4)ccnc3N3CC[C@H](F)C3)[nH]c2C1 [Example 41, (S)-1-(2-(2-(3-fluoropyrrolidin-1-yl)-4-phenylpyridin-3-yl)-3,4,6,7-tetrahydro-5H-imidazo[4,5-c]pyridin-5-yl)-2-methylpropan-1-one] | ≥ 50 | + (+ indicates a value less than 2.0 μM) |
| F[C@H]1CCN(c2nccc(-c3ccccc3)c2-c2nc3c([nH]2)CN(Cc2ccccc2)CC3)C1 [Example 42, (S)-5-benzyl-2-(2-(3-fluoropyrrolidin-1-yl)-4-phenylpyridin-3-yl)-4,5,6,7-tetrahydro-3H-imidazo[4,5-c]pyridine] | < 1 | ++ (++ indicates a value from 2.0 up to 5.0 μM) |
| FC1(F)CCN(c2nccc(-c3ccccc3)c2-c2nc3c([nH]2)COCC3)C1 [Example 43, 2-(2-(3,3-difluoropyrrolidin-1-yl)-4-phenylpyridin-3-yl)-3,4,6,7-tetrahydropyrano[3,4-d]imidazole] | < 1 | +++ (+++ indicates a value from 5.0 up to 7.5 μM) |
| c1ccc(-c2ccnc(N3CCCC3)c2-c2nc3c([nH]2)COCC3)cc1 [Example 44, 2-(4-phenyl-2-(pyrrolidin-1-yl)pyridin-3-yl)-3,4,6,7-tetrahydropyrano[3,4-d]imidazole] | 1 to 10 | +++ (+++ indicates a value from 5.0 up to 7.5 μM) |
| FC1(F)C2CN(c3nccc(-c4ccccc4)c3-c3nc4c([nH]3)COCC4)CC21 (centres unmarked) [Example 45, 2-(2-(6,6-difluoro-3-azabicyclo[3.1.0]hexan-3-yl)-4-phenylpyridin-3-yl)-3,4,6,7-tetrahydropyrano[3,4-d]imidazole] | < 1 | +++ (+++ indicates a value from 5.0 up to 7.5 μM) |
| N#CC1CCN(c2nccc(-c3ccccc3)c2-c2nc3c([nH]2)COCC3)C1 (centres unmarked) [Example 46] | 1 to 10 | +++ (+++ indicates a value from 5.0 up to 7.5 μM) |
| FC(F)(F)C1CCN(c2nccc(-c3ccccc3)c2-c2nc3c([nH]2)COCC3)C1 (centres unmarked) [Example 47, 2-(4-phenyl-2-(3-(trifluoromethyl)pyrrolidin-1-yl)pyridin-3-yl)-3,4,6,7-tetrahydropyrano[3,4-d]imidazole] | 1 to 10 | +++ (+++ indicates a value from 5.0 up to 7.5 μM) |
| F[C@@H]1CN(c2nccc(-c3ccccc3)c2-c2nc3c([nH]2)COCC3)C[C@@H]1F [Example 48, 2-(2-((3S,4R)-3,4-difluoropyrrolidin-1-yl)-4-phenylpyridin-3-yl)-3,4,6,7-tetrahydropyrano[3,4-d]imidazole] | 1 to 10 | +++ (+++ indicates a value from 5.0 up to 7.5 μM) |
| FC1(F)CCCN(c2nccc(-c3ccccc3)c2-c2nc3c([nH]2)COCC3)C1 [Example 49, 2-(2-(3,3-difluoropiperidin-1-yl)-4-phenylpyridin-3-yl)-3,4,6,7-tetrahydropyrano[3,4-d]imidazole] | 10 to 50 | ++ (++ indicates a value from 2.0 up to 5.0 μM) |
| FC1(F)CC2(CN(c3nccc(-c4ccccc4)c3-c3nc4c([nH]3)COCC4)C2)C1 [Example 50, 2-(2-(6,6-difluoro-2-azaspiro[3.3]heptan-2-yl)-4-phenylpyridin-3-yl)-3,4,6,7-tetrahydropyrano[3,4-d]imidazole] | 10 to 50 | ++ (++ indicates a value from 2.0 up to 5.0 μM) |
| FC(F)(F)C1(CNc2nccc(-c3ccccc3)c2-c2nc3c([nH]2)COCC3)CCC1 [Example 51, 4-phenyl-3-(3,4,6,7-tetrahydropyrano[3,4-d]imidazol-2-yl)-N-((1-(trifluoromethyl)cyclobutyl)methyl)pyridin-2-amine] | < 1 | + (+ indicates a value less than 2.0 μM) |
| CC1(C)Cc2nc(-c3c(-c4ccccc4)ccnc3N3CCC(F)(F)C3)[nH]c2CO1 [Example 52, 2-(2-(3,3-difluoropyrrolidin-1-yl)-4-phenylpyridin-3-yl)-6,6-dimethyl-3,4,6,7-tetrahydropyrano[3,4-d]imidazole] | < 1 | +++ (+++ indicates a value from 5.0 up to 7.5 μM) |
| FC1(F)CCN(c2nccc(-c3ccccc3)c2-c2nc3c([nH]2)COC2(CCC2)C3)C1 [Example 53, 2′-(2-(3,3-difluoropyrrolidin-1-yl)-4-phenylpyridin-3-yl)-4′,7′-dihydro-3′H-spiro[cyclobutane-1,6′-pyrano[3,4-d]imidazole]] | 1 to 10 | ++ (++ indicates a value from 2.0 up to 5.0 μM) |
